Where “and” joins values, the source holds several entries; their conditions need not be identical. Identical values can stand only once. Like-named read-outs stand apart in the source and are kept apart here.
Assays:
[1] = biological target: T1, isolated human 20S proteasome, CT-L activity (Homo sapiens, UniProt P20618+P28074); assay: Proteasome inhibition assay in isolated human 20S proteasomes (Proteasome-Glo), CT-L activity; type: biochemical; settings: for inhibition at 10 µM: read-out: percentage of proteasome inhibition, CT-L, isolated 20S proteasome; for percentage of proteasome inhibition, CT-L, isolated human 20S proteasome: at 100 µM, Table 1 legend: bortezomib positive control 10 µM
T1 construct: human purified erythrocyte-derived 20S proteasome; purchased Enzo Life Sciences, Inc; host or cells: human erythrocytes (natural source)
Source text: (§1) In this assay, the peptide substrates are bound to aminoluciferin (Suc-LLVY-AML for CT-L activity, Z-nLPnLD-AML for C-L, and Z-LRR-AML for T-L), leading the cleavage of these substrates by the proteasome to the release of free aminoluciferin, which is the substrate of the buffer-contained luciferase.
(§2) To evaluate human purified erythrocyte-derived 20S proteasome inhibitory activity of the chosen compounds, the Proteasome-Glo™ 3-substrate system (Promega Corporation, Madison, WI, USA) was employed. The Proteasome-Glo™ reagents of the three proteolytic activities were prepared according to the manufacturer’s instructions, aliquoted, and stored at either −20 °C or 4 °C, avoiding freezing–thaw cycles. […] The purified 20S proteasome (Enzo Life Sciences, Inc., Farmingdale, NY, USA) was diluted in HEPES buffer 10 mM, pH 7.4, to a concentration experimentally adjusted to the signal/noise ratio obtained with each particular lot of Proteasome-Glo™ reagent, in order to have a good compromise between sensitivity and linear response. […] All assays were performed in white-walled multiwell plates (Thermo Scientific™ Sterilin™ White Microtiter™ plates, Thermo Fisher Scientific, Paisley, UK) in duplicates. The proteasome solution (25 μL) was added to each well first, then the diluted solutions of the assayed compounds (25 μL), and lastly the Proteasome-Glo™ Reagent (50 μL). […] Reagents were added to the plate well on ice, and the plate was then transferred to the plate luminometer (SpectraMax®, Molecular Devices, LLC, San Jose, CA, USA) set at 37 °C, gently mixed for 30 s, and the measurements were immediately started in kinetic mode, with data collected every 5 min for at least 60 min.
(§3) All compounds were dissolved in DMSO at a concentration of 10 mM and stored at −20 °C or 4 °C. Solutions of the test compounds were prepared at their adequate dilutions in 10 mM HEPES buffer pH 7.6 before each experiment.
(§4) To calculate the proteasome activity over time, the value of mean relative luminescence units (RLU) of blank wells at each respective time point was subtracted, and then the ratio between mean RLU of the sample and mean RLU of the positive control wells was calculated for each time point and expressed as percentage.

[2] = biological target: T2, 20S proteasome in HT-29 cell lysates, C-L activity (Homo sapiens, UniProt P28072); assay: Proteasome inhibition assay in cell lysates, HT-29, C-L; settings: for percentage of proteasome inhibition, C-L, cell lysates HT-29: at 100 µM; for percentage of proteasome inhibition, C-L, cell lysates HT-29 / inhibition at 100 µM: Table 2 legend: bortezomib 10 µM; for inhibition at 10 µM: read-out: percentage of proteasome inhibition, C-L, cell lysates HT-29, at 10 µM; for inhibition at 100 µM: read-out: percentage of proteasome inhibition, C-L, cell lysates HT-29, at 100 µM
T2 sequence (P28072 35-239 limits assumed): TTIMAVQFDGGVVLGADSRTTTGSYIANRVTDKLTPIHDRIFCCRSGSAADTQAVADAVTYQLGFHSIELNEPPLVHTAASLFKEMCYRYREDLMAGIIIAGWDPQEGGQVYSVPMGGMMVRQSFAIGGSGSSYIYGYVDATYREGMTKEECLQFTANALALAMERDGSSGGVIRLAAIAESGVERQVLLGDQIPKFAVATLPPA
T2 sequence (Q99436 44-277 partner): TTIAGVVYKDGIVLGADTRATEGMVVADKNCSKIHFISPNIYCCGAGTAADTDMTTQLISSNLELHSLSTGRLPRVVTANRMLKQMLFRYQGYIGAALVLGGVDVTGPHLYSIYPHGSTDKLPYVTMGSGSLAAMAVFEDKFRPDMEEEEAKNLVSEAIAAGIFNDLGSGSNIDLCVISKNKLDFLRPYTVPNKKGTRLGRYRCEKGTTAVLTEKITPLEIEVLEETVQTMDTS
Protocol: (§5) Cells were obtained from several cultured cell lines: Jurkat, K562, HT-29, and HCT116. Pellets with 20 × 10^6 cells were prepared and washed with cold sterile phosphate buffered saline (PBS), 1×, pH 7.4 (Gibco, Thermo Fisher Scientific, Paisley, UK). […] Cells were resuspended in buffer containing 50 mM TRIS-HCl pH 7.4 (Nzytech, Lisboa, Portugal), 5 mM MgCl2 (≥98% purity, Merck, Hamburg, Germany), 1 mM DTT (Merck, Hamburg, Germany), 2 mM ATP (≥98% purity, Enzo Life Sciences Inc., Farmingdale, NY, USA), and 250 mM saccharose (Merck, Hamburg, Germany). Glass beads (Merck, Hamburg, Germany) equivalent to the volume of the cell suspension were added, and the mixture was vortexed for 2 min at 4 °C. Beads and cell debris were removed using 5 min centrifugation at 1000× g and 4 °C, followed by 20 min of centrifugation at 10,000× g at 4 °C. Cell lysates containing proteasomes were resuspended in “activity buffer” [50 mM TRIS-HCl (pH 7.4), 5 mM MgCl2, 1 mM DTT, 2 mM ATP (≥98% purity, Enzo Life Sciences Inc., Farmingdale, NY, USA), and 500 µM EDTA (≥98% purity, Merck, Hamburg, Germany)]. Protein concentration was determined using the Pierce™ BCA protocol (Thermo Fisher Scientific, Rockford, IL, USA). […] DMSO was added in an equal volume as used for the untreated compounds as a way to assess/control its influence in the assay. Untreated cells were used as control. In each well of a 96-well plate, 25 µL of lysate were seeded in duplicate with 25 µL of the compound to test; in the control, 25 µL of activity buffer were added to the 25 µL of lysate. A blank (50 µL of activity buffer) was added to the wells in quadruplicate. Cell lysates, pre-treated or not with different concentrations of the test compounds, were incubated for 30 min at 37 °C. […] Stock solutions (10 mM) of each substrate were prepared in DMSO, diluted in activity buffer, and 50 µL were added to all wells (final concentration of each substrate = 100 µM), followed by an incubation at 37 °C for 60 min. Samples fluorescence was measured at an excitation wavelength of 360 nm and emission of 465 nm; the fluorescence measures were performed using the GloMax-Multi + Detection System (Promega Corp., Madison, WI, USA). Activity was evaluated in fluorescence units, after being converted to percentage of proteasome inhibition and, whenever possible, expressed as IC50 by plotting the inhibition data of each compound at different concentrations against the log of the concentration of the inhibitor, using the GraphPad Prism software version 7. At least eight different concentrations of the test compounds were used.

[3] = biological target: T3, 20S proteasome in Jurkat cell lysates, C-L activity (Homo sapiens, UniProt P28072); assay: Proteasome inhibition assay in cell lysates, Jurkat, C-L; settings: for percentage of proteasome inhibition, C-L, cell lysates Jurkat: at 100 µM; for percentage of proteasome inhibition, C-L, cell lysates Jurkat / inhibition at 100 µM: Table 2 legend: bortezomib 10 µM; for inhibition at 10 µM: read-out: percentage of proteasome inhibition, C-L, cell lysates Jurkat, at 10 µM; for inhibition at 100 µM: read-out: percentage of proteasome inhibition, C-L, cell lysates Jurkat, at 100 µM
T3 sequence (P28072 35-239 limits assumed): T2 sequence (P28072 35-239 limits assumed)
T3 sequence (Q99436 44-277 partner): T2 sequence (Q99436 44-277 partner)
Protocol: as §5

[4] = biological target: T4, 20S proteasome in HCT116 cell lysates, C-L activity (Homo sapiens, UniProt P28072); assay: Proteasome inhibition assay in cell lysates, HCT116, C-L; settings: for percentage of proteasome inhibition, C-L, cell lysates HCT116: at 100 µM; for percentage of proteasome inhibition, C-L, cell lysates HCT116 / inhibition at 100 µM: Table 2 legend: bortezomib 10 µM, NI = No inhibition; for inhibition at 100 µM: read-out: percentage of proteasome inhibition, C-L, cell lysates HCT116, at 100 µM; for inhibition at 10 µM: read-out: percentage of proteasome inhibition, C-L, cell lysates HCT-116, at 10 µM
T4 sequence (P28072 35-239 limits assumed): T2 sequence (P28072 35-239 limits assumed)
T4 sequence (Q99436 44-277 partner): T2 sequence (Q99436 44-277 partner)
Protocol: as §5

[5] = biological target: T5, isolated human 20S proteasome, C-L activity (Homo sapiens, UniProt P28072+Q99436); assay: Proteasome inhibition assay in isolated human 20S proteasomes (Proteasome-Glo), C-L activity; type: biochemical; settings: for inhibition at 10 µM: read-out: percentage of proteasome inhibition, C-L, isolated 20S proteasome; for percentage of proteasome inhibition, C-L, isolated human 20S proteasome: at 100 µM, Table 1 legend: bortezomib positive control 10 µM
T5 construct: human purified erythrocyte-derived 20S proteasome; purchased Enzo Life Sciences, Inc; host or cells: human erythrocytes (natural source)
Source text: as §1, §2, §3, §4

[6] = biological target: T6, 20S proteasome in HT-29 cell lysates, CT-L activity (Homo sapiens, UniProt P28074); assay: Proteasome inhibition assay in cell lysates, HT-29, CT-L; settings: for percentage of proteasome inhibition, CT-L, cell lysates HT-29: at 100 µM; for percentage of proteasome inhibition, CT-L, cell lysates HT-29 / inhibition at 100 µM: Table 2 legend: bortezomib 10 µM; for inhibition at 10 µM: read-out: percentage of proteasome inhibition, CT-L, cell lysates HT-29, at 10 µM; for inhibition at 100 µM: read-out: percentage of proteasome inhibition, CT-L, cell lysates HT-29, at 100 µM
T6 sequence (P28074 60-263): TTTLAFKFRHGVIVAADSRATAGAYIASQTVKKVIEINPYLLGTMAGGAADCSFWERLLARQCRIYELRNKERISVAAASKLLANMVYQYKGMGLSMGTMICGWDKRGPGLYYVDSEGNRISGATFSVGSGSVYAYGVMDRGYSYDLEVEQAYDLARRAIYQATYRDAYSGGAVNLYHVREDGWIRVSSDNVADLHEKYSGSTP
T6 sequence (P20618 29-241 partner): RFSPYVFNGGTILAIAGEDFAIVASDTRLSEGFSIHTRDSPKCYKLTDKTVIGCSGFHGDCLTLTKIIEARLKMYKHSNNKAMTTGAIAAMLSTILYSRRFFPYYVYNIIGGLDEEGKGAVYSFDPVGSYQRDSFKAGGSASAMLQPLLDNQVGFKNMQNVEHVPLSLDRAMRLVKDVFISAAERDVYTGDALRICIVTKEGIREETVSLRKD
Protocol: as §5

[7] = biological target: T7, 20S proteasome in HCT116 cell lysates, CT-L activity (Homo sapiens, UniProt P28074); assay: Proteasome inhibition assay in cell lysates, HCT116, CT-L; settings: for percentage of proteasome inhibition, CT-L, cell lysates HCT116: at 100 µM; for percentage of proteasome inhibition, CT-L, cell lysates HCT116 / inhibition at 100 µM: Table 2 legend: bortezomib 10 µM; for inhibition at 100 µM: read-out: percentage of proteasome inhibition, CT-L, cell lysates HCT116, at 100 µM; for inhibition at 10 µM: read-out: percentage of proteasome inhibition, CT-L, cell lysates HCT-116, at 10 µM
T7 sequence (P28074 60-263): T6 sequence (P28074 60-263)
T7 sequence (P20618 29-241 partner): T6 sequence (P20618 29-241 partner)
Protocol: as §5

| Compound | inhibition at 10 µM ([1]; at 10 µM) [%] | percentage of proteasome inhibition, CT-L, isolated human 20S proteasome [1] | percentage of proteasome inhibition, C-L, cell lysates HT-29 [2] [%] | inhibition at 10 µM [2] [%] | inhibition at 100 µM [2] [%] | percentage of proteasome inhibition, C-L, cell lysates Jurkat [3] [%] | inhibition at 10 µM [3] [%] | inhibition at 100 µM [3] [%] | percentage of proteasome inhibition, C-L, cell lysates HCT116 [4] [%] | inhibition at 100 µM [4] [%] | inhibition at 10 µM [4] [%] | inhibition at 10 µM [5] [%] | percentage of proteasome inhibition, C-L, isolated human 20S proteasome [5] | IC50 [6] [µM] | percentage of proteasome inhibition, CT-L, cell lysates HT-29 [6] [%] | inhibition at 10 µM [6] [%] | inhibition at 100 µM [6] [%] | percentage of proteasome inhibition, CT-L, cell lysates HCT116 [7] [%] | inhibition at 100 µM [7] [%] | inhibition at 10 µM [7] [%] | other results |
| --- | --- | --- | --- | --- | --- | --- | --- | --- | --- | --- | --- | --- | --- | --- | --- | --- | --- | --- | --- | --- | --- |
| CC(C)c1nc(CN(C)C(=O)N[C@@H](CCN2CCOCC2)C(=O)N[C@H](CC[C@H](Cc2ccccc2)NC(=O)OCc2cncs2)Cc2ccccc2)cs1 [Compound 5, cobicistat, reference compound] | 2.85 | 35.60% and 36% | 29 | 0 | 29.3 | 36 | 0 | 36.2 | 28 | 28.1 | 0 | 0 | 33.57% and 34% | 84.3 | 81 | 0 | 81.2 | 67 | 66.9 | 0 | IC50 [7]: 95.9 µM |
| Cc1ccc(/C(=N/NS(=O)(=O)c2ccc([N+](=O)[O-])cc2)Sc2cc(Cl)c(C)cc2S(N)(=O)=O)cc1 [Compound 3] | – | 91.40% and 91% | 19 | 0 | 18.6 | 25 | 0 | 25.4 | – | 0 | 0 | 9.9 | 88.38% and 88% | – | 31 | 0 | 31.4 | 33 | 33 | 0 | IC50 [1]: 49.3 µM; inhibition at 10 µM [1]: 8.2% |
| O=C1c2ccccc2C(=O)c2c(Nc3ccc(S(=O)(=O)N(CCO)CCO)cc3)ccc(O)c21 [Compound 2] | 81.3 | 98% | 69 | 6.78 | 69.2 | 74 | 26.9 | 73.5 | 74 | 74.1 | 11.1 | 90.8 | 97.86% and 98% | 73.8 | 62 | 2.11 | 62.2 | 74 | 74.2 | 6.93 | IC50 ([1]; mean ± SD, read-out: IC50, CT-L, isolated human 20S proteasome): 5.6 µM; IC50 [2]: 62.1 µM; IC50 [3]: 42.4 µM; IC50 [4]: 43.5 µM; IC50 [7]: 50.9 µM |

— article PMC10458307, “New Scaffolds of Proteasome Inhibitors: Boosting Anticancer Potential by Exploiting the Synergy of In Silico and In Vitro Methodologies” (Pharmaceuticals, 2023)
